Measured values from US10774051B2, “6-membered heterocyclic derivatives and pharmaceutical composition comprising the same” (Shionogi & Co., Ltd., priority 2015, dated 2020).

Target: human P2X7 receptor (Homo sapiens, UniProt Q99572, R270H/Y155H)
Assay: Evaluation of human P2X7 receptor inhibitory activity (Yo-Pro uptake, BzATP stimulation, FLIPR TETRA)
Assay type: cell-based
Conditions: 1321N1 cells stably expressing human P2X7 receptor; BzATP stimulation, Yo-Pro uptake; read-out: IC50 (antagonistic activity for the human P2X7 receptor)
Description: Stably expressing cell line (1321N1 cell transfected with the human P2X7 receptor gene (GenBank accession number NM_002562.5 including T606C and G952A SNP)) was used. The cells were seeded in a 384-well microtiter plate at a concentration of 8000 cells/well and cultured in the medium (10% fetal bovine serum, 25 mM HEPES, 1% penicillin and streptomycin in DMEM) for one day at 37° C. under 5% carbon dioxide atmosphere. After replacing with 20 μL of the HBSS buffer (20 mM HEPES, 55.6 mM D-glucose, 1×HBSS(−), pH7.4-7.5), 15 μL of 17.3 μM Yo-Pro solution in the HBSS buffer was added. The plate was placed in high-throughput cellular screening system FLIPR TETRA (Molecullar Devices, LLC.) and 15 μL of 130 μM BzATP solution in the HBSS buffer was added. Measurement of fluorescence intensity by FLIPR TETRA was started. After eight minutes, 15 μL of DMSO solutions containing different concentrations of the compound of the present invention as prepared by dilution with the HBSS buffer were dispensed to each well through the built-in automatic dispenser, and the measurement of fluorescence intensity was continued for 20 minutes. […] Changing values of fluorescence intensity by the compound of the present invention were calculated by difference between maximum and minimum fluorescence intensity for 20 minutes. Inhibition ratios (%) were calculated from the following equation:
[formula] IC50 was calculated using logistic approximation.

`COc1cn(Cc2ccc(F)c(Cl)c2)c(Nc2cc3c(cc2C)OCO3)nc1=O` [Compound I-0742] and `COc1cn(Cc2ccc(F)cc2)c(Nc2cc3sc(C)nc3cc2C)nc1=O` [Compound I-0561] are within 1.5-fold of each other in IC50: 0.016 µM for the first, 0.019 µM for the second.

Going from `COc1cc(C)c(Nc2nc(=O)c(OC)cn2Cc2cc(F)cc(Cl)c2)cc1OC` [Compound I-0452] to `COc1cn(Cc2cc(F)cc(F)c2)c(Nc2cc(C)c(F)cc2C)nc1=O` [Compound I-0437], the IC50 falls from 0.11 µM to 0.008 µM (14-fold).

Going from `Cc1c(Cl)cccc1Nc1nc(=O)c(C#N)cn1Cc1ccccc1` [Compound I-0013] to `COc1cn(Cc2ccccc2C(F)(F)F)c(Nc2cccc(Cl)c2C)nc1=O` [Compound I-0294], the IC50 rises from 0.039 µM to 0.25 µM (6.4-fold).

First: COc1cn(Cc2ccccc2F)c(Nc2cc(C)c(C)cc2C)nc1=O [Compound I-0176]
Second: CCc1ccccc1CNc1nc(=O)c(OC)cn1Cc1ccc(F)c(Cl)c1 [Compound I-0453]
The IC50 of the first is 5.6-fold lower: 0.013 µM for the first, 0.073 µM for the second. The first is the more potent here.

Same assay, conditions: 1321N1 cells stably expressing human P2X7 receptor; BzATP stimulation, Yo-Pro uptake; read-out: IC50 (antagonistic activity for the human P2X7 receptor), class symbol

First: COc1cn(Cc2ccccc2)c(Nc2cc(OC(C)C)ccc2C)nc1=O [Compound I-0320]
Second: CCOc1ccc(C)c(Nc2nc(=O)c(OC)cn2Cc2ccccc2)c1 [Compound I-0455]
The IC50 of the first is higher: 0.1 to 0.5 µM for the first, 0.01 to 0.1 µM for the second. The second is the more potent here.

First: CCCc1ccccc1Nc1nc(=O)c(OC)cn1Cc1ccccc1 [Compound I-0109]
Second: CCc1cc(Br)ccc1Nc1nc(=O)c(OC)cn1Cc1ccccc1 [Compound I-0101]
The IC50 of the first is higher: 0.5 to 1 µM for the first, 0.01 to 0.1 µM for the second.

`CCc1cc(OC)c(OC)cc1Nc1nc(=O)c(OC)cn1Cc1cccc(Cl)c1` [Compound I-0271] and `CCc1c(Nc2nc(=O)c(OC)cn2Cc2ccc(F)c(Cl)c2)cc(OC)cc1OC` [Compound I-0363] cannot be ordered by IC50: < 0.01 µM for the first, < 0.01 µM for the second.

`COc1cn(Cc2ccc(F)c(F)c2)c(Nc2cc(C)c(C)cc2C)nc1=O` [Compound I-0277] and `COc1cn(Cc2ccc(F)cc2)c(Nc2cc(C)c(C)cc2C)nc1=O` [Compound I-0162] cannot be ordered by IC50: < 0.01 µM for the first, < 0.01 µM for the second.

First: COc1cn(Cc2ccccc2C)c(Nc2cccc(Cl)c2C)nc1=O [Compound I-0043]
Second: COc1cn(Cc2ccc(F)cc2)c(Nc2cccc(Cl)c2C)nc1=O [Compound I-0001]
The IC50 of the first is higher: 0.1 to 0.5 µM for the first, < 0.01 µM for the second. The second is the more potent here.

`COc1cn(Cc2ccccc2)c(Nc2cccc(N(C)C)c2C)nc1=O` [Compound I-0217] and `COc1cn(Cc2ccc(F)cc2)c(Nc2cccc(N(C)C)c2C)nc1=O` [Compound I-0401] fall in the same range of IC50: 0.01 to 0.1 µM for the first, 0.01 to 0.1 µM for the second.

First: COc1cn(Cc2cccc(F)c2)c(Nc2cccc(C)c2C)nc1=O [Compound I-0323]
Second: COc1cn(Cc2ccccc2)c(Nc2cc(F)ccc2C)nc1=O [Compound I-0090]
The IC50 of the first is lower: < 0.01 µM for the first, 0.1 to 0.5 µM for the second. The first is the more potent here.

`COc1cn(Cc2cccc(Cl)c2)c(Nc2cc3c(cc2C)OCCO3)nc1=O` [Compound I-0290] and `COc1cn(Cc2ccc(Cl)cc2)c(Nc2cc(C)c(Cl)cc2C)nc1=O` [Compound I-0171] fall in the same range of IC50: 0.01 to 0.1 µM for the first, 0.01 to 0.1 µM for the second.

Compared with `CCc1ccccc1Nc1nc(=O)c(OC)cn1Cc1cc(F)cc(Cl)c1` [Compound I-0435], `CCc1cc(OC)ccc1Nc1nc(=O)c(OC)cn1Cc1ccc(F)cc1` [Compound I-0262] is lower in IC50: 0.01 to 0.1 µM for the first, < 0.01 µM for the second. The second is the more potent here.

First: COc1cn(Cc2ccccc2)c(Nc2cccc3c(=O)[nH]ccc23)nc1=O [Compound I-0392]
Second: COc1c(C)cccc1Nc1nc(=O)c(OC)cn1Cc1ccccc1 [Compound I-0130]
The IC50 of the first is lower: 0.01 to 0.1 µM for the first, 0.1 to 0.5 µM for the second.

`CCOc1cc(C)c(Nc2nc(=O)c(OC)cn2Cc2ccc(F)c(Cl)c2)cc1C` [Compound I-0231] and `COc1cc(C)c(Nc2nc(=O)c(F)cn2Cc2ccc(F)cc2)cc1C` [Compound I-0319] cannot be ordered by IC50: < 0.01 µM for the first, < 0.01 µM for the second.

Compared with `COc1cc(C)c(Nc2nc(=O)c(F)cn2Cc2ccccc2)cc1C` [Compound I-0318], `COc1ccc(Nc2nc(=O)c(OC)cn2Cc2ccccc2)c(C)c1C` [Compound I-0499] is higher in IC50: < 0.01 µM for the first, 0.01 to 0.1 µM for the second.

`COc1ccc(Nc2nc(=O)c(OC)cn2Cc2cc(F)cc(F)c2)c(C)c1` [Compound I-0538] and `COc1cn(Cc2ccc(F)c(F)c2)c(Nc2ccc(OC(C)C)cc2C)nc1=O` [Compound I-0530] fall in the same range of IC50: 0.01 to 0.1 µM for the first, 0.01 to 0.1 µM for the second.

`COc1cn(Cc2ccccc2)c(Nc2cc(Cl)ccc2Cl)nc1=O` [Compound I-0080] and `COC(=O)c1ccc(C)c(Nc2nc(=O)c(OC)cn2Cc2ccccc2)c1` [Compound I-0150] fall in the same range of IC50: 0.1 to 0.5 µM for the first, 0.1 to 0.5 µM for the second.

First: COc1cn(Cc2ccc(F)c(F)c2)c(Nc2cc3[nH]ncc3cc2C)nc1=O [Compound I-0491]
Second: CCc1ccccc1Nc1nc(=O)c(F)cn1Cc1ccc(F)cc1 [Compound I-0140]
The IC50 of the first is lower: < 0.01 µM for the first, 0.01 to 0.1 µM for the second.

Same assay, conditions: antagonistic activity for the human P2X7 receptor; read-out: IC50

`CCc1cc(F)c(OC)cc1Nc1nc(=O)c(OC)cn1Cc1ccccc1` [Compound I-0813] and `CCOc1cn(Cc2ccccc2)c(Nc2cc(OC)c(OC)cc2CC)nc1=O` [Compound I-0893] cannot be ordered by IC50: < 0.01 µM for the first, < 0.01 µM for the second.

`Cc1cc2c(cc1Nc1nc(=O)c(F)cn1Cc1ccc(F)c(F)c1)COC2` [Compound I-1028] and `COc1cc(Nc2nc(=O)c(F)cn2Cc2ccc(F)c(Cl)c2)c(C)cc1F` [Compound I-1051] cannot be ordered by IC50: < 0.01 µM for the first, < 0.01 µM for the second.

First: COc1ccc(Nc2nc(=O)c(C(N)=O)cn2Cc2cc(F)c(F)c(F)c2)c(C)c1 [Compound I-1100]
Second: CCOc1ccc(C)c(Nc2nc(=O)c(OC)cn2Cc2cc(F)c(F)c(F)c2)c1 [Compound I-0862]
The IC50 of the first is higher: 0.01 to 0.1 µM for the first, < 0.01 µM for the second.

First: COc1ccc(C)c(Nc2nc(=O)c(OC)cn2Cc2cccc(Cl)c2)c1 [Compound I-0627]
Second: COc1cccc(Nc2nc(=O)c(OC)cn2Cc2cccc(F)c2)c1C [Compound I-0642]
The IC50 of the first is higher: 0.01 to 0.1 µM for the first, < 0.01 µM for the second.

First: COc1cccc(Nc2nc(=O)c(OC)cn2Cc2ccc(F)c(Cl)c2)c1Cl [Compound I-0683]
Second: COc1cn(Cc2ccc(F)c(Cl)c2)c(Nc2cc(C(C)(C)O)ccc2C)nc1=O [Compound I-0775]
The IC50 of the first is lower: < 0.01 µM for the first, 0.01 to 0.1 µM for the second.

`COc1cn(Cc2cc(F)cc(F)c2)c(Nc2cc(-c3ccccc3)ccc2C)nc1=O` [Compound I-0829] and `COc1cn(Cc2cc(F)cc(F)c2)c(Nc2cc(-n3cccc3)ccc2C)nc1=O` [Compound I-0655] fall in the same range of IC50: 0.01 to 0.1 µM for the first, 0.01 to 0.1 µM for the second.

`Cc1ccc(Nc2nc(=O)c(F)cn2Cc2cc(F)c(F)c(F)c2)c(Cl)c1` [Compound I-1184] and `Cn1ccc2c(Nc3nc(=O)c(F)cn3Cc3cc(F)c(F)c(F)c3)cccc21` [Compound I-1018] cannot be ordered by IC50: < 0.01 µM for the first, < 0.01 µM for the second.

First: Cc1c(Nc2nc(=O)ccn2Cc2ccc(F)c(Cl)c2)ccc2[nH]ccc12 [Compound I-1170]
Second: Cc1nc2[nH]ccc2cc1Nc1nc(=O)c(F)cn1Cc1ccc(F)c(Cl)c1 [Compound I-1091]
The IC50 of the first is lower: < 0.01 µM for the first, 0.01 to 0.1 µM for the second.

First: COc1cc(C)c(Nc2nc(=O)c(OC)cn2Cc2cc(F)c(F)c(F)c2)cc1Cl [Compound I-0763]
Second: COc1cn(Cc2cc(F)c(F)c(F)c2)c(Nc2cc3c(cc2C)OCCC3)nc1=O [Compound I-0917]
The IC50 of the first is lower: < 0.01 µM for the first, 0.01 to 0.1 µM for the second.

First: COc1cn(Cc2cc(F)cc(Cl)c2)c(Nc2cc(-c3nnco3)ccc2C)nc1=O [Compound I-0667]
Second: Cc1ccc(-c2nnco2)cc1Nc1nc(=O)c(Cl)cn1Cc1cc(F)cc(F)c1 [Compound I-0699]
The IC50 of the first is higher: 0.01 to 0.1 µM for the first, < 0.01 µM for the second.

Compared with `COc1cn(Cc2ccc(F)c(Cl)c2)c(Nc2cc(C)c(Cl)cc2C)cc1=O` [Compound I-0949], `Cc1cc2cc(Nc3nc(=O)c(F)cn3Cc3ccc(F)c(Cl)c3)c(C)cc2[nH]1` [Compound I-1055] is lower in IC50: 0.1 to 0.5 µM for the first, 0.01 to 0.1 µM for the second. The second is the more potent here.

Compared with `COc1cn(Cc2ccccc2)c(Nc2cc(N3CCCC3)ccc2C)nc1=O` [Compound I-0883], `COc1cn(Cc2ccccc2)c(Nc2cc(N3CCOCC3)ccc2C)nc1=O` [Compound I-0740] is higher in IC50: 0.01 to 0.1 µM for the first, 0.1 to 0.5 µM for the second.

`Cc1cc(S(C)(=O)=O)cc(Nc2nc(=O)c(F)cn2Cc2cc(F)c(F)c(F)c2)c1C` [Compound I-1212] and `O=c1nc(Nc2cccc3c2CCCO3)n(Cc2cc(F)c(F)c(F)c2)cc1F` [Compound I-1173] cannot be ordered by IC50: < 0.01 µM for the first, < 0.01 µM for the second.

`Cc1cc2[nH]ccc2cc1Nc1nc(=O)c(F)cn1Cc1cc(F)cc(F)c1` [Compound I-1044] and `Cc1nc2cc(Cl)c(Nc3nc(=O)c(F)cn3Cc3cc(F)cc(F)c3)cc2o1` [Compound I-1075] cannot be ordered by IC50: < 0.01 µM for the first, < 0.01 µM for the second.

First: Cc1cc(C)c(Nc2nc(=O)c(Br)cn2Cc2cc(F)cc(F)c2)cc1C [Compound I-1113]
Second: CCOc1ccc(Nc2nc(=O)c(OC)cn2Cc2cc(F)cc(F)c2)c(C)c1 [Compound I-0680]
The IC50 of the first is lower: < 0.01 µM for the first, 0.01 to 0.1 µM for the second.

Compared with `O=c1nc(Nc2cccc3c(O)cccc23)n(Cc2ccc(F)c(Cl)c2)cc1F` [Compound I-1116], `COc1cn(Cc2ccccc2)c(Nc2cc(-c3ccccc3)ccc2C)nc1=O` [Compound I-0827] is higher in IC50: < 0.01 µM for the first, 0.01 to 0.1 µM for the second. The first is the more potent here.

First: COc1cn(Cc2cc(F)c(F)c(F)c2)c(Nc2cc3c(cc2C)OCCO3)nc1=O [Compound I-0708]
Second: COc1cc(C)c(Nc2nc(=O)c(C(=O)O)nn2Cc2cc(F)c(F)c(F)c2)cc1OC [Compound I-1251]
The IC50 of the first is lower: < 0.01 µM for the first, 0.01 to 0.1 µM for the second.

First: COCc1cn(Cc2cc(F)c(F)c(F)c2)c(Nc2cc(C)cc3[nH]ccc23)nc1=O [Compound I-1155]
Second: COc1cn(Cc2cc(F)cc(F)c2)c(Nc2cc(-c3cccn(C)c3=O)c(F)cc2C)nc1=O [Compound I-0592]
The IC50 of the first is lower: < 0.01 µM for the first, 0.01 to 0.1 µM for the second.
